This is an account of results in patent US7964349B2, “Method to determine responsiveness of cancer to epidermal growth factor receptor targeting treatments” (The General Hospital Corporation, priority 2004, dated 2011).

Where “and” joins values, the source holds several entries; their conditions need not be identical. Identical values can stand only once. Entries after “also recorded” stand apart in the source; their conditions may differ.

Series [1] has as its system non-small cell lung cancer (NSCLC). The conditions noted are these: cited from earlier work.
For series [2] the test system is unchanged.
Description: A significant clinical response was defined either as a partial response using RECIST criteria for patients with measurable disease, or for patients whose tumor burden could not be quantified using these criteria, an evaluable response was assessed by two physicians.
The subject of series [3] is Lung cancer cells harboring EGFR mutations vs cells with wild-type receptor. In words: Apoptosis / cell viability (MTT) assay with increasing drug concentrations. The conditions noted are these: compared with cells expressing only wild-type EGFR. The class given is cell-based, human. How it is done:
10,000 cells were seeded into individual wells of a 96-well plate. […] After 96 hours, the viability of cells was determined using the MTT assay. For caspase immunostaining, 10,000 cells were seeded onto 10 mm coverslips. The next day they were transfected with siRNA (see previous section for details). After 72 hours the cells were fixed in 4% paraformaldehyde at room temperature for 10 min. They were subsequently permeabilized for 5 min in 0.5% Triton X-100 and blocked for 1 hr in 5% normal goat serum (NGS). […] The next day the coverslips were washed 3 times in PBS and incubated for 1 hour with secondary antibody (goat anti-rabbit Texas-red conjugated; from Jackson Immunoresearch; West Grove, Pa.) at a 1:250 dilution in 5% normal goat serum and 0.5 μg/ml of DAPI (4′,6-Diamidino-2-phenylindole). After 3 washes in PBS the coverslips were mounted with ProLong Gold anti-fade reagent from Molecular Probes (Eugene, Oreg.).
10 μl of 5 mg/ml MTT (Thiazolyl blue; Sigma) solution was added to each well of a 96-well plate. After 2 hours of incubation at 37° C., the medium was removed and the MTT was solubilized by the addition of 100 μl of acidic isopropanol (0.1N HCL) to each well. The absorbance was determined spectophotometrically at 570 nm.

The next series deals with advanced NSCLC. The series can be described thus: Randomized trial of carboplatin/paclitaxel with or without erlotinib in advanced NSCLC. It counts as in vivo, human.
[4] abbreviates: multi-institutional phase II trial.
The mark [5] stands for this setting: single patients 1-9, one per line.

Description for advanced NSCLC: Tumor specimens were analyzed from patients with advanced NSCLC treated on the randomized trial of carboplatin/paclitaxel with or without erlotinib.

Take `COc1cc2ncnc(Nc3ccc(F)c(Cl)c3)c2cc1OCCCN1CCOCC1` [Gefitinib]: the “patients with dramatic clinical responses” value in series [1] (chemotherapy-refractory NSCLC) is listed as “approximately 10%”. For the same compound, the “side effects of treatment” value in series [1] (generally believed consequence of EGFR inhibition in normal tissues) is “diarrhea and dermatitis”. For the same compound, in series [1] (setting [4]), the “response rate, Japanese patients” value is 27.5% and the “response rate, predominantly European-derived population” value was 10.4%. The “patients identified as having significant clinical responses” value in series [2] (of a total of 275 patients treated) is recorded as 25 patients. In series [2] (setting [5]), the “Overall Survival, from the beginning of gefitinib treatment to death” value was >14.0 mo and 12.9 mo and >21.4 mo and >7.8 mo and >4.3 mo and 17.9 mo and 18.8 mo; the Response result is given as “Major; Improved bilateral; also recorded: Partial; improved lung; also recorded: Minor; improved pleural; also recorded: Partial; improved liver; also recorded: Major; improved lung”. Also, in series [2] (the 9 responder patients of Table 1), the “median survival from the start of drug treatment” value is listed as greater than 18 months.

As to `N.N.[Cl][Pt][Cl]` [cisplatin], the “resistance of EGFR-mutant lung cancer cells to induced cell death signals” value (“resistance” for short) in series [3] is given as “markedly increased resistance”.

`COc1cccc2c1C(=O)c1c(O)c3c(c(O)c1C2=O)C[C@@](O)(C(=O)CO)C[C@@H]3O[C@H]1C[C@H](N)[C@H](O)[C@H](C)O1` [doxorubicin]: in series [3], the “resistance” value was “markedly increased resistance”.

As for `C#Cc1cccc(Nc2ncnc3cc(OCCOC)c(OCCOC)cc23)c1` [erlotinib], the “survival in the two treatment arms” value in the series with advanced NSCLC is given as “equivalent survival”.

As for Fas-ligand, the “resistance” value in series [3] was “markedly increased resistance”.
